Drawing on patent publication US20240417393A1, “CERTAIN 2,5-DIAZABICYCLO[4.2.0]OCTANES AS GLP-1 RECEPTOR MODULATORS” (ASTRAZENECA AB, priority 2021, published 2024), this text covers EC50 for 12 compounds.

The target of experiment [1] is T1, human GLP-1R receptor (Homo sapiens, UniProt P43220, L260F).
T1 construct: expressed in transfected cells; host or cells: CHO-K1 (ATCC CCL-61)
As to the kind of experiment: CHOK1 GLP-1R cAMP Assay (HTRF). Type of experiment: cell-based. The settings on record: CHO-K1 cells stably expressing human GLP-1R (Leu260Phe variant), 20 min at rt. As for the experimental part: A cell line stably expressing the human GLP-1R receptor (NM_002062.5, including the naturally-occurring variant Leu260Phe) in a CHO-K1 (ATCC® CCL-61™) was used for assay.
GLP-1 receptor mediated agonist activity was determined in a cell-based assay measuring cyclic adenosine monophosphate (cAMP) levels in cells using Homogeneous Time-Resolved Fluorescence (HTRF) cAMP detection kit (CisBio catalog #62AM4PEC, cAMP Gs Dynamic range kit). The cAMP detection method is based on a competitive immunoassay, in which cAMP produced by the cells and cAMP labeled with the dye d2 compete for binding to a Europium-Cryptate-labeled anti-cAMP antibody. The specific HTRF signal is inversely proportional to the concentration of cAMP.
Compounds were added to individual well in 384 well-assay plates (Greiner #784076) using an Echo (LabCyte) dispenser from 10 mM stocks. Varying concentration of compounds were added to wells, and DMSO was used to normalize each well to a volume of 100 nL. A dose response curve of GLP-1(7-36)NH2 (Bachem H-6795) was included in each run. 5 μL of cAMP concentration response standards are applied in specified wells in the assay plates. Cryo-preserved cells are thawed and resuspended in assay buffer pre-heated to 37° C. (20 mM 2-[4-(2-hydroxyethyl)piperazin-1-yl]ethanesulfonic acid (HEPES) pH 7.4, 1× Hank's Balanced Salt Solution (HBSS, Life Technologies #14065) supplemented with 0.1% (w/v) bovine serum albumin (Sigma, A-7030)). Cells were centrifuged at 250*g for 5 min at rt, and resuspended in room tempered assay buffer to a final density of 0.16*10^6 cell/mL, to deliver 800 cells/well. 5 μL of assay buffer with 1 mM 3-isobutyl-1-methylxanthin (IBMX; Sigma cat I-7018) was dispensed per well in assay plates using a multidrop combi (Thermo Scientific) subsequently 5 μL of cell suspension was distributed to relevant wells in the assay using a multidrop dispenser. Assay plates were incubated 20 min at rt.
Detection reagents, Europium-Cryptate-labeled anti-cAMP antibody and cAMP labeled with the dye d2, are diluted in lysis buffer, provided by the manufacturer. 5 μL of each detection reagent is supplemented to each assay well using a multidrop dispenser. Assay plates are incubated in the dark for at least one h. The HTRF signal is measured using the HTRF module (excitation: 337 nm, emission A: 665 nm and emission B: 620 nm) in Pherastar FSX (BMG Labtech).
Raw data were converted to pM cAMP using the cAMP standard curve included in each run. Converted data were further analyzed in Genedata Screener (Genedata) and EC50 determinations were made from agonist dose-response curves analyzed with a curve fitting is program using a 4-parameter logistic dose response equation (Equation y=A+((B-A)/1+((C/x)^D))) where A is no stimulation, B is full stimulation, C is the EC50 and D is the Hill slope). The percent effect was determined relative to a saturating concentration of a full GLP-1R agonist (GLP-1(7-36)NH2 has 100% effect in this assay setup).
Background: In TR-FRET formats the signal depends on donor and acceptor labels being close together.

Experiment [2] concerns the target T2, GLP-1R in a pancreatic insulinoma cell line (EndoC-PH1) (Homo sapiens, UniProt P43220).
T2 construct: host or cells: EndoC-βH1 human pancreatic beta cell line
The experiment in a line: EndoC cAMP Accumulation Assay (HTRF). Type of experiment: cell-based. The settings on record: EndoC-PH1 human pancreatic beta cell line, endogenous GLP-1R, 30 min at rt. The text has this: EndoC cAMP Accumulation Assay
A HTRF cAMP assay (cAMP Gs dynamic kit; CisoBio Cat #62AM4PEJ) was used to identify agonists of GLP-1R in a pancreatic insulinoma cell line (EndoC-PH1). […] EndoC-PHlcells have detectable GLP-1R messenger ribonucleic acid (mRNA) as detected by quantitative polymerase chain reaction (qPCR). […] The EndoC-PH1 cell line is a valid model of human beta cells and applicable for screenings to identify novel drug target candidates (Mol. Metab., 2018, 8, 144-157). CisBio HTRF cAMP kits are based on a competitive immunoassay using cryptate-labelled anti-cAMP antibody and d2-labeled cAMP. The detection kit is intended for the direct is quantitative determination of cAMP. The specific signal (i.e. energy transfer) is inversely proportional to the concentration of cAMP in the standard or sample. Test compounds (10 mM in DMSO) were diluted into assay buffer (HBSS (Sigma #H8264) supplemented with 25 mM HEPES (Gibco #15630, pH 7.4), 0.1% BSA (Sigma #A3059) and 0.5 mM IBMX (Sigma #I7018) included fresh on the day of the assay) into 96 well U-bottom plates (Greiner #650201). Diluted compounds were transferred to ECHO source polypropelene plates (Labcyte #P-05525) and dose response curves were dispensed acoustically using ECHO 550 into black shallow-well u-bottom 384-well HTRF Assay Plates (Corning 4514). Cryovials of EndoC-H1 (supplied at 1×10e^7 cells/vial) were used directly for screening. The cryovials and were removed from N2(1) and thawed rapidly in a 37° C. water bath. The cells were resuspended in assay buffer and centrifuged at 300 g for 5 min. Cells were resuspended in assay buffer at the appropriate concentration, typically at 12e5 cells per mL (3000 cells per well, dependent on cell batch) and 2.5 μL diluted cells were added to all wells of destination plate by Multidrop combi reagent dispenser (Thermofisher). The plates were incubated at rt for 30 min. The assay was stopped by adding 2.5 μL anti-cAMP cryptate solution to all wells and 2.5 μL cAMP-d2 solution (both diluted 1:20 in lysis buffer) to columns 1-22 by Combi drop. A volume of 2.5 μL cAMP-d2 solution was added to wells E23 to P24 and 2.5 μL lysis buffer added to wells A23 to D24 by multichannel pipette. The plates were incubated at rt for 1 h and read on an Envision plate reader using excitation wavelength of 320 nm and emission of […] and 660 nm.
Raw data from Envision is converted to % DeltaF according to the manufacturer's instructions. Dose response curves are analysed via 4-Parameter Logistical Analysis and assay plate Z’ values obtained. Samples are graphed as percentage (%) activation plots compared to […] with assay window defined by negative control as basal cell is cAMP levels and positive control are defined by maximum GIP (82.5 nM) signal. GLP-1 (7-36 amide, Bachem H-6795) dose response curve was included on all plates.

The structures appear in SMILES notation.

T1 sequence (P43220 24-463 L260F): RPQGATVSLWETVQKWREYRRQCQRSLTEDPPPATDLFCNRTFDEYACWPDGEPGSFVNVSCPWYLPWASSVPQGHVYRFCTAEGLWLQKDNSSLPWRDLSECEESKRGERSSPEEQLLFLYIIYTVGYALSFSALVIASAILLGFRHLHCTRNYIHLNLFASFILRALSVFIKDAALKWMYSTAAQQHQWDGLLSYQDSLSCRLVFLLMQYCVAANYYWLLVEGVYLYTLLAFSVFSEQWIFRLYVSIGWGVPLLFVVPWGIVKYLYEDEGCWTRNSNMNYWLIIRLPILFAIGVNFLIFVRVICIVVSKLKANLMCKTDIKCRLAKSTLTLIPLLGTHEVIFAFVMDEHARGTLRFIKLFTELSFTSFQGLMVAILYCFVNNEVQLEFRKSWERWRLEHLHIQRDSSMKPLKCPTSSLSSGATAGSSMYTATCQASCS
T2 sequence (P43220 24-463): as the sequence (P43220 24-463 L260F) above, with F237L counted along it

Usually EC50 stands for the concentration that produces a half-maximal response. Regarding `C[C@]1(c2ccc(Cl)cc2F)Oc2cccc(N3CCN(Cc4nc5ccc(C(=O)O)cc5n4C[C@@H]4CCO4)[C@H]4CC[C@@H]43)c2O1` (single isomer, unassigned) [Example 21b, 2-(((1R*,6R*)-5-((R*)-2-(4-Chloro-2-fluorophenyl)-2-methylbenzo[d][1,3]dioxol-4-yl)-2,5-diazabicyclo[4.2.0]octan-2-yl)methyl)-1-(((S)-oxetan-2-yl)methyl)-1H-benzo[d]imidazole-6-carboxylic acid], the EC50 was 340 nM in experiment [1] and 2200 nM in experiment [2].
With `C[C@]1(c2ccc(Cl)cn2)Oc2cccc(N3CCN(Cc4nc5c(F)cc(C(=O)O)cc5n4CC4(C#N)CC4)[C@H]4CC[C@@H]43)c2O1` (single isomer, unassigned) [Example 24a], the values for the EC50 in experiment [1] and in experiment [2] were 32 nM and 16 nM, respectively.
Regarding `COc1cc(C(=O)O)cc2c1nc(CN1CCN(c3cccc4c3O[C@@](C)(c3ccc(Cl)cn3)O4)[C@H]3CC[C@@H]31)n2CC1(C#N)CC1` (single isomer, unassigned) [Example 25c], the EC50 in experiment [1] worked out at 1.2 nM; in experiment [2], 3.1 nM.
Taken in the same sequence, the figures for `C[C@]1(c2ccc(Cl)cn2)Oc2cccc(N3CCN(Cc4nc5c(Cl)cc(C(=O)O)cc5n4C[C@@H]4CCO4)[C@H]4CC[C@@H]43)c2O1` (single isomer, unassigned) [Example 3a, 4-Chloro-2-(((1R*,6R*)-5-((R*)-2-(5-chloropyridin-2-yl)-2-methylbenzo[d][1,3]dioxol-4-yl)-2,5-diazabicyclo[4.2.0]octan-2-yl)methyl)-1-(((S)-oxetan-2-yl)methyl)-1H-benzo[d]imidazole-6-carboxylic acid] were 220 nM and 4400 nM.
Taken in the same sequence, the figures for `C[C@]1(c2ccc(Cl)cn2)Oc2cccc(N3CCN(Cc4nc5ccc(C(=O)O)cc5n4C[C@@H]4CCO4)[C@H]4CC[C@@H]43)c2O1` (single isomer, unassigned) [Example 22a, 2-(((1R*,6R*)-5-((R*)-2-(5-Chloropyridin-2-yl)-2-methylbenzo[d][1,3]dioxol-4-yl)-2,5-diazabicyclo[4.2.0]octan-2-yl)methyl)-1-(((S)-oxetan-2-yl)methyl)-1H-benzo[d]imidazole-6-carboxylic acid] were 29 nM and 49 nM.
As for `C[C@]1(c2ccc(Cl)cc2F)Oc2cccc(N3CCN(Cc4nc5ccc(C(=O)O)cc5n4C[C@@H]4CCO4)[C@H]4CC[C@H]43)c2O1` (single isomer, unassigned) [Example 18b, 2-((1R*,6S*)-5-(R*)-2-(4-Chloro-2-fluorophenyl)-2-methylbenzo[d][1,3]dioxol-4-yl)-2,5-diazabicyclo[4.2.0]octan-2-yl)methyl)-1-(((S)-oxetan-2-yl)methyl)-1H-benzo[d]imidazole-6-carboxylic acid], the results for the EC50 in experiment [1] and in experiment [2] were 120 nM and 480 nM, respectively.
For `C[C@]1(c2ccc(Cl)cn2)Oc2cccc(N3CCN(Cc4nc5c(Cl)cc(C(=O)O)cc5n4CC4(CC#N)CC4)[C@H]4CC[C@@H]43)c2O1` (single isomer, unassigned) [Example 26d] the same measures were 10 nM and 7 nM.
As to `C[C@]1(c2ccc(Cl)cn2)Oc2cccc(N3CCN(Cc4nc5c(F)cc(C(=O)O)cc5n4CC4(C#N)CC4)[C@H]4CC[C@@H]43)c2O1` (single isomer, unassigned) [Example 24b], the EC50 came out at 2.1 nM in experiment [1] and 8 nM in experiment [2].
Taken in the same sequence, the figures for `C[C@]1(c2ccc(Cl)cn2)Oc2cccc(N3CCN(Cc4nc5ccc(C(=O)O)cc5n4C[C@@H]4CCO4)[C@H]4CC[C@@H]43)c2O1` (single isomer, unassigned) [Example 22b, 2-(((1R*,6R*)-5-((R*)-2-(5-Chloropyridin-2-yl)-2-methylbenzo[d][1,3]dioxol-4-yl)-2,5-diazabicyclo[4.2.0]octan-2-yl)methyl)-1-(((S)-oxetan-2-yl)methyl)-1H-benzo[d]imidazole-6-carboxylic acid] were 5.3 nM and 18 nM.
In experiment [1], `C[C@]1(c2ccc(Cl)cn2)Oc2cccc(N3CCN(Cc4nc5c(Cl)cc(C(=O)O)cc5n4C[C@@H]4CCO4)[C@H]4CC[C@H]43)c2O1` (single isomer, unassigned) [Example 20b, 4-Chloro-2-(((1R*,6S*)-5-((R*)-2-(5-chloropyridin-2-yl)-2-methylbenzo[d][1,3]dioxol-4-yl)-2,5-diazabicyclo[4.2.0]octan-2-yl)methyl)-1-(((S)-oxetan-2-yl)methyl)-1H-benzo[d]imidazole-6-carboxylic acid] yielded an EC50 of 140 nM.
The same measure, in the same setting: in the case of `COc1cc(C(=O)O)cc2c1nc(CN1CCN(c3cccc4c3OC(C)(c3ccc(Cl)cn3)O4)[C@H]3CC[C@@H]31)n2CCOC1CC1(F)F` (mixture of isomers) [Example 13, rac-2-(((1R,6R)-5-(2-(5-Chloropyridin-2-yl)-2-methylbenzo[d][1,3]dioxol-4-yl)-2,5-diazabicyclo[4.2.0]octan-2-yl)methyl)-1-(2-(2,2-difluorocyclopropoxy)ethyl)-4-methoxy-1H-benzo[d]imidazole-6-carboxylic acid] it was 5.2 nM; in that of `C[C@]1(c2ccc(Cl)cn2)Oc2cccc(N3CCN(Cc4nc5c(Cl)cc(C(=O)O)cc5n4C[C@@H]4CCO4)[C@H]4CC[C@H]43)c2O1` (relative stereo) [Example 20a, 4-Chloro-2-(((1R*,6S*)-5-((R*)-2-(5-chloropyridin-2-yl)-2-methylbenzo[d1[1,3]dioxol-4-yl)-2,5-diazabicyclo[4.2.0]]octan-2-yl)methyl)-1-(((S)-oxetan-2-yl)methyl)-1H-benzo[d]imidazole-6-carboxylic acid], 42 nM.
